Activity data for three molecules are collected here from ChEMBL document CHEMBL3407474, “Structural insight of glitazone for hepato-toxicity: Resolving mystery by PASS” (Bioorg Med Chem Lett, 2015).

For assay [1], the system named is HepG2. Briefly: Induction of p53 protein level in human HepG2 cells at 50 uM upto 24 hrs by immunoblot analysis. The class given is functional, cell-based. In general terms: A western blot detects proteins with antibodies after separation by electrophoresis.
Assay [2] deals with HepG2. Briefly: Induction of p53 protein level in human HepG2 cells at 50 uM by immunoblot analysis. The class given is functional, cell-based. To be noted: TDE = time-dependent effect.

The source made the active and inactive calls. No cut-off for these calls is given here.

`CCc1ccc(CCOc2ccc(CC3SC(=O)NC3=O)cc2)nc1` (centres undefined): the outcome in assay [1] was inactive. As to `Cc1c(C)c2c(c(C)c1O)CCC(C)(COc1ccc(CC3SC(=O)NC3=O)cc1)O2` (centres undefined), the result in assay [1] was Active. Moreover, the Activity entry in assay [2] was “tde”. As to `CN(CCOc1ccc(CC2SC(=O)NC2=O)cc1)c1ccccn1` (centres undefined), in assay [1], the result was inactive.
